Data reported in patent US12390472B2 (SUZHOU SINOVENT PHARMACEUTICALS CO., LTD., priority 2018, dated 2025).
Read-outs that look alike come from different tables or passages of the source.

Key:
WSU-DLCL2 cells = test: Experiment on WSU-DLCL2 cell proliferation (Calcein-AM); format: cell-based; conditions: Homo sapiens
Procedure: WSU-DLCL2 cells were plated in a 96-well plate and 100 uL of cells (a density of 1×10^5 cells/mL) and 50 uL of compound stock at 3-fold concentration was added to each well, and the final volume was 150 uL/well. After 6 days of culturing, on day 7, the cells in the well plate were mixed well by pipetting, and 50 uL of the cell suspension was pipetted to be tested for cell viability using Calcein-AM. 50 uL of the cell suspension was added to a 96-well plate coated by poly-D-Lysine, and then 50 uL of HBSS containing 2 uM Calcein-AM was added to make the final concentration of Calcein-AM 1 uM. After incubation for 10 min at room temperature, the cells were rapidly centrifuged to be deposited on the bottom of the plate. The cells were cultured in the incubator for another 40 min and then the plate was read on Acumen.
The remaining cells were diluted and then plated in a 96-well plate, and 100 uL of cells and 50 uL of a compound at 3-fold concentration were added to each well for further culturing until day 14, and the cell viability was detected as described above. The IC50 was calculated.

Pfeiffer cells = test: Experiment on Pfeiffer cell proliferation (CellTiter-Glo); format: cell-based, human; conditions: Homo sapiens
Procedure: 90 uL of cells were added to each well of a 96-well plate at 12000 cells/well, and cell-free culture medium was added to blank control wells. The plate was incubated overnight in an incubator at 37° C., 5% CO2 and 100% relative humidity. The compounds were diluted from highest to lowest concentration gradient with DMSO to make stock solutions at 400-fold and 10-fold concentration. 10 μL of 10× compound working solution was added to the cell culture plate, and the total concentration of the compound was detected from 10 μM, 9 concentration points in total, and 3-fold serial dilution was performed. 10 μL of DMSO-cell culture medium mixture solution was added to the vehicle control wells and blank control wells. The final concentration of DMSO was 0.25%. The plate was put back in the incubator for another 7 days of culturing.
The cell culture plate cultured for 7 days was taken out of the incubator, and the suspended cells in the 96-well plate were mixed well by pipetting multiple times. 74 uL of fresh cell culture medium was added to a new 96-well plate, and 16 uL of cell suspension was pipetted from the 96-well plate with cells mixed well by pipetting into the new 96-well plate to bring the total volume to 90 uL. Cells in the new 96-well plate were treated with the compound. The new 96-well plate was put back in the incubator for another 7 days of culturing, and then cell viability was detected directly.
84 μL of cell suspension was taken from the cell culture plate for cell viability detection.
CellTiter-Glo buffer and substrate were thawed and balanced to room temperature. The CellTiter-Glo buffer was added to a bottle of CellTiter-Glo substrate to dissolve the substrate, thereby preparing CellTiter-Glo working solution. The bottle was subjected to slow vortex shaking to completely dissolve the substrate. The cell culture plate was taken out and balanced to room temperature for 30 min. 50 μL of CellTiter-Glo working solution was added to each well. The cell plate was wrapped with aluminum foil to keep out of light. The plate was shaken on an orbital shaker for 2 min to induce cell lysis. The plate was placed at room temperature for 10 min to stabilize the luminescence signals. The luminescence signals were detected on 2104 En Vision plate reader.
Inhibition rates of compounds at different concentrations were calculated in Excel, followed by plotting the inhibition curves and calculating relevant parameters including minimum (%), maximum (%), and absolute IC50 using GraphPad Prism software.

[1] = In vivo pharmacokinetic properties in mice; set-up: species or system mouse; conditions: male ICR mice; for F: intragastric 250 mg/kg vs intravenous 5 mg/kg; for CL / AUC(0-inf) / Cmax / Tmax / half-life: single intravenous 5 mg/kg and intragastric 250 mg/kg study; for AUC(0-inf) / Cmax / Tmax / half-life: mouse, plasma; for AUC(0-inf) / Cmax / Tmax: oral; for Cmax: read-out: Cmax; for Tmax: read-out: Tmax
Procedure: Male ICR mice were divided into different groups with 3 mice in each group, and single intravenous injection and single intragastric administration were conducted respectively. The compounds were formulated with 10% DMSO/90% (20% Captisol) to reach an appropriate concentration and then administered intravenously at 5 mg/kg. The compounds were formulated with 0.5% CMC-Na/0.1% Tween 80 (pH=3-4) to reach an appropriate concentration and then administered intragastrically at 250 mg/kg. Blood was taken at 5 min, 15 min, 30 min, 1 h, 2 h, 4 h, 6 h, 8 h and 24 h after administration, and then subjected to EDTA-K2 anticoagulation. The concentration of the compound in the plasma was quantitatively detected by an LC-MS/MS method.

[2] = system: subcutaneous xenograft tumor model of human B lymphocyte Pfeiffer; test: In vivo efficacy in subcutaneous xenograft tumor model of human B lymphocyte Pfeiffer; set-up: species or system mouse; conditions: SCID Beige mice, 50 mg/kg p.o. QD 21 days, tumor volume 21 days after administration
Procedure: Human B lymphocyte strain Pfeiffer was cultured in vitro, in a monolayer way, in a RPMI-1640 medium containing 10% fetal bovine serum, 100 U/mL penicillin and 100 μg/mL streptomycin in an incubator at 37° C./5% CO2. Conventional medium refreshment and subculturing were carried out twice a week, and cells in logarithmic growth phase were collected and used for tumor inoculation after being counted.
Female SCID Beige mice, aged 6-8 weeks and weighed 18-22 g were used in the experiment. The experiment started after 7-day adaptive feed.
Each mouse was inoculated subcutaneously with 10×10^6 Pfeiffer cells in a volume of 0.2 mL in the right side of the neck. The cells were suspended with PBS and matrigel (volume ratio 1:1). After the average tumor volume reached 130 mm^3, the mice were divided into groups with 8 mice per group for administration. The administration volume was 10 uL/g and the dose was 100 mg/kg if there's no special labeling ((p.o. administration, QD, continuous administration for 21 days).
Animal body weights were measured twice weekly and animal mortality and side effects within each group were recorded based on the number of animals in the group.
The experimental indices were to investigate whether tumor growth was inhibited or delayed or the tumor was cured. Tumor diameters were measured twice weekly using a vernier caliper. The tumor volume was calculated according to the following formula: V=0.5 a×b^2, where a and b represent the long diameter and short diameter of the tumor, respectively. The tumor growth inhibitions (TGIs) of the compounds were evaluated by T/C (%). The percentage value of T/C (%) is an index for reflecting the tumor growth inhibition, where T and C represent the average tumor volume of the administration group and the control group, respectively, at a certain day.
The tumor growth inhibition rate was calculated according to the following formula: TGI (%)=(1−(Ti−T0)/(Vi−V0))×100, where Ti is the average tumor volume of a certain administration group on a certain day, T0 is the average tumor volume of the administration group at the start of administration, Vi is the average tumor volume of the vehicle control group on a certain day (same day as Ti) and V0 is the average tumor volume of the vehicle control group at the start of administration.
Relative tumor volumes at each time point for each group were statistically analyzed and differences among groups were assessed based on the data. The statistical method used for testing was one-way ANOVA.

EZH2 (Y641N) = EZH2 (Y641N) (Homo sapiens (Human), UniProt Q15910, Y641N); test: Test on EZH2 (Y641N) inhibitory activity; format: biochemical
Procedure: (§1) Compounds at different concentrations were dissolved in 100% DMSO and transferred to test plates, and the final concentration of DMSO was 1%. Enzyme solution and substrate SAM solution were prepared with 1-fold reaction buffer (optimized Tris buffer). 5 uL of enzyme solution was added to the test plate and wells only added with 5 uL of reaction buffer were used as negative control wells. After incubation at room temperature for 15 min, the plate was added with 5 uL of substrate solution per well to initiate the reaction, and then incubated at room temperature for 60 min. 5 uL of receptor solution was added and the plate was incubated away from light at room temperature for 60 min. 10 uL of donor solution was added and the plate was incubated away from light at room temperature for 30 min. The endpoint values were read on the Envision and the IC50 was calculated.
(§2) Data were fitted by GraphPad Prism 5 software and inhibition rate was calculated according to equation (1) Inh %=(Max−Signal)/(Max−Min)×100 (1)
(§3) IC50 was calculated using equation (2) Y=Bottom+(Top−Bottom)/(1+10^((Log IC50−X)×Hill Slope))
(§4) Y: inhibition rate; X: concentration of the compound

EZH2 (Y641F) = EZH2 (Y641F) (Homo sapiens (Human), UniProt Q15910, Y641F); test: Test on EZH2 (Y641F) inhibitory activity; format: biochemical
Procedure: as §1, §2, §3, §4

EZH2 (wt) = EZH2 (wt) (Homo sapiens (Human), UniProt Q15910); test: Test on EZH2 (wt) inhibitory activity ([3H]-SAM Flashplate); format: biochemical
Procedure: Protocols Compounds at different concentrations were dissolved in 100% DMSO and transferred to test plates, and the final concentration of DMSO was 1%. The enzyme solution and the mixture solution of peptide and [3H]-SAM were prepared with 1-fold reaction buffer. 10 uL of enzyme solution was added to the test plate and wells only added with 10 uL of reaction buffer were used as negative control wells. After incubation at room temperature for 15 min, the plate was added with 10 uL of the mixture solution of peptide and [3H]-SAM per well to initiate the reaction which lasts for 60 min at room temperature. The pre-cooled SAM was added to 1-fold reaction buffer to prepare a stop buffer. The reaction was stopped by adding 10 uL of stop buffer per well. 25 uL of solution was transferred from the reaction plate to Flashplate and incubated at room temperature for at least 1 h. The Flashplate was washed 3 times with dH2O+0.1% Tween-20. The plate was read by Microbeta.
as §2, §3, §4

[3] = WSUDLCL2, 168 h, WSU-DLCL2, Day 7, read-out: IC50 WSU-DLCL2 proliferation Day 7
[4] = WSUDLCL2, 336 h, WSU-DLCL2, Day 14, read-out: IC50 WSU-DLCL2 proliferation Day 14
[5] = 168 h, Day 7, read-out: IC50 Pfeiffer proliferation Day 7
[6] = 336 h, Day 14, read-out: IC50 Pfeiffer proliferation Day 14

Sequence of EZH2 (wt) (Q15910 whole entry): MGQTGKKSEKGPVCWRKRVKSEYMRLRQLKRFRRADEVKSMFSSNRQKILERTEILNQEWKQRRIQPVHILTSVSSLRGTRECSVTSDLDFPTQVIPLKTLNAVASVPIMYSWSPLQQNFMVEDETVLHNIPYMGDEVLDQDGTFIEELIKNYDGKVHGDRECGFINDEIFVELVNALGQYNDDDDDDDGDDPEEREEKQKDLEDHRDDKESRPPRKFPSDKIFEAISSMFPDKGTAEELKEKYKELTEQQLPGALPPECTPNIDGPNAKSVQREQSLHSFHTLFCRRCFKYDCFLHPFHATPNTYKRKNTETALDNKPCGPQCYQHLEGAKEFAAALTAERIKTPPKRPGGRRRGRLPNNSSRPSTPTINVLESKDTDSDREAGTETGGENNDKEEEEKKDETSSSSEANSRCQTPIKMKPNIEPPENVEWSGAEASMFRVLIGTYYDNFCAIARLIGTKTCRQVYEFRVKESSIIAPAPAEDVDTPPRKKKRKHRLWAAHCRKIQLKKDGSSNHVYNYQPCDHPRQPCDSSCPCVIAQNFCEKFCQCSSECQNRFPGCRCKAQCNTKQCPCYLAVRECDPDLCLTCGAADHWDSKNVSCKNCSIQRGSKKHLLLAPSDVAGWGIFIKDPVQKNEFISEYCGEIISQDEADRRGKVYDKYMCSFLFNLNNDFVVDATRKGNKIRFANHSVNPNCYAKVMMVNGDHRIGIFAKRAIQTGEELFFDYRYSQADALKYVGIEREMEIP
Sequence of EZH2 (wt) (O75530 whole entry partner): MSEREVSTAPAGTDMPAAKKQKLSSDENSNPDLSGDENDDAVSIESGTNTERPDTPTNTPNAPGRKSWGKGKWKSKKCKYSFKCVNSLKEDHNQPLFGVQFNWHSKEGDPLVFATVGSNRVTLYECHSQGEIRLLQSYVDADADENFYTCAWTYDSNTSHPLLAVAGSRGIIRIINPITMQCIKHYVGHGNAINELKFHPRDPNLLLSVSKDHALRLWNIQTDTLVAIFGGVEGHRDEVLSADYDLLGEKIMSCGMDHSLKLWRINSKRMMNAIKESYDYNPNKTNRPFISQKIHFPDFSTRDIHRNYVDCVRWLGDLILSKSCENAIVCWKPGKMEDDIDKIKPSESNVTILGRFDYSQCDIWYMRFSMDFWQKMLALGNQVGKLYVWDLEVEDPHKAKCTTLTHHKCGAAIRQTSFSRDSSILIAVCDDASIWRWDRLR
Sequence of EZH2 (wt) (Q15022 whole entry partner): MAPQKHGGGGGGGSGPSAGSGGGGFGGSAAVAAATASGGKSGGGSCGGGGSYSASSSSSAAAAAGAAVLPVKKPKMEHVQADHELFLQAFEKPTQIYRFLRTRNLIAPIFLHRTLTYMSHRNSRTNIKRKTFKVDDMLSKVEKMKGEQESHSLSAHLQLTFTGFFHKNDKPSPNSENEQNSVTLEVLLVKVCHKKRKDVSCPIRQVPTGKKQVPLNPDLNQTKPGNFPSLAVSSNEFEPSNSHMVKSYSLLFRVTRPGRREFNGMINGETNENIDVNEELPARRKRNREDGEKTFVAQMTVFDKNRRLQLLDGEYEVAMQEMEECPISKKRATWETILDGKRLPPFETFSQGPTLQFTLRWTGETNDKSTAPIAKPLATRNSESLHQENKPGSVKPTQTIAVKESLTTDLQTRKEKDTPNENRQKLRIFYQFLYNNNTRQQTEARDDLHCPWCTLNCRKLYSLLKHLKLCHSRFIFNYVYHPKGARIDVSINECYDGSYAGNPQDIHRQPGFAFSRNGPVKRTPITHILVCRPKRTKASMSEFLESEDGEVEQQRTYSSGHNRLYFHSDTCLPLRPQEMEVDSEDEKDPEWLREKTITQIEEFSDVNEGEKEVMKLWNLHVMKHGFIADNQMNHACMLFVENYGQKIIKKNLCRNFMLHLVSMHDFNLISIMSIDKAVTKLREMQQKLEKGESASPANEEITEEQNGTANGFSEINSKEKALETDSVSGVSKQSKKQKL
Sequence of EZH2 (Y641N) (Q15910 whole entry Y641N): as the sequence (Q15910 whole entry) above, with Y641N counted along it
Sequence of EZH2 (Y641N) (O75530 whole entry partner): as the sequence (O75530 whole entry partner) above
Sequence of EZH2 (Y641N) (Q15022 whole entry partner): as the sequence (Q15022 whole entry partner) above
Sequence of EZH2 (Y641F) (Q15910 whole entry Y641F): as the sequence (Q15910 whole entry) above, with Y641F counted along it
Sequence of EZH2 (Y641F) (O75530 whole entry partner): as the sequence (O75530 whole entry partner) above
Sequence of EZH2 (Y641F) (Q15022 whole entry partner): as the sequence (Q15022 whole entry partner) above

| SMILES | IC50 (WSU-DLCL2 cells; [3]) [nM] | IC50 (WSU-DLCL2 cells; [4]) [nM] | IC50 (Pfeiffer cells; [5]) [nM] | IC50 (Pfeiffer cells; [6]) [nM] | F [1] [%] | CL [1] [mL/min/lg] | AUC(0-inf) [1] [ng·h/mL] | Cmax [1] [ng/mL] | Tmax [1] [h] | half-life [1] [h] | TGI [2] [%] | IC50 (EZH2 (Y641N)) [nM] | IC50 (EZH2 (Y641F)) [nM] | IC50 (EZH2 (wt)) [nM] |
| --- | --- | --- | --- | --- | --- | --- | --- | --- | --- | --- | --- | --- | --- | --- |
| CCN(c1cc(O[C@H]2C[C@H](N3CCCCC3)C2)cc(C(=O)NCc2c(C)cc(C)[nH]c2=O)c1C)C1CCC(F)(F)CC1 [Example 68, 3-((4,4-difluorocyclohexyl)(ethyl)amino)-N-((4,6-dimethyl-2-oxo-1,2-dihydropyridin-3-yl)methyl)-2-methyl-5-(trans-3-(piperidin-1-yl)cyclobutoxy)benzamide] | 49 | 12 | 13 | 4.6 | 56.5 | 27.1 ± 5.94 | 89500 | 9250 ± 181 | 1.33 ± 0.58 | 10.4 ± 8.53 | 94.28 |  |  |  |
| CCN(c1cc(O[C@H]2C[C@H](N3CCCCC3)C2)cc(C(=O)NCc2c(OC)cc(C)[nH]c2=O)c1C)C1CCC(F)(F)CC1 [Example 91, 3-((4,4-difluorocyclohexyl)(ethyl)amino)-N-((4-methoxy-6-methyl-2-oxo-1,2-dihydropyridin-3-yl)methyl)-2-methyl-5-(trans-3-(piperidin-1-yl)cyclobutoxy)benzamide] | 24 | 6 | 6 | 2 | 82.3 | 66.9 ± 3.70 | 51600 | 9350 ± 1900 | 1.67 ± 0.58 | 7.72 ± 3.14 | 89.39 |  |  |  |
| CCN(c1cc(O[C@H]2C[C@H](N3CCCCC3)C2)cc(C(=O)NCc2c(C)cc(C)[nH]c2=O)c1C)C1CCOCC1 [Example 92] |  |  |  |  | 48.6 | 80.84 ± 5.78 | 25200 ± 4540 | 9440 ± 1000 | 0.58 ± 0.38 | 2.03 ± 1.14 |  | < 0.51 | < 0.51 | 0.52 |
| CCN(c1cc(O[C@H]2C[C@H](N3CCCCC3)C2)cc(C(=O)NCc2c(O)cc(C)[nH]c2=O)c1C)C1CCC(F)(F)CC1 [Example 94, 3-((4,4-difluorocyclohexyl)(ethyl)amino)-N-((4-hydroxy-6-methyl-2-oxo-1,2-dihydropyridin-3-yl)methyl)-2-methyl-5-(trans-3-(piperidin-1-yl)cyclobutoxy)benzamide] |  |  |  |  |  |  |  |  |  |  |  | 100 | 123 | 145 |
